Laboratory results published in ChEMBL document CHEMBL4819124, “Folate-targeted verrucarin A reduces the number of activated macrophages in a mouse model of acute peritonitis” (Bioorg Med Chem Lett, 2021).
The source made the active and inactive calls. The rule behind the calls is not given here. *1 amine or outer side, *2 acyl side, *3 side chain or, on linkers, in order; H or OH if unused. Where a SMILES comes first, the peptide text is derived from it. The star is where a group is joined. Pteroyl = Nc1nc2ncc(CNc3ccc(C(=O)*)cc3)nc2c(=O)[nH]1; γGlu = O=C(O)[C@H](CCC(=O)[*:2])N[*:1]

Experiments:
KB = experiment: Cytotoxicity against human KB cells assessed as reduction in cell viability treated for 1 hr followed by 72 hrs incubation in drug free media by [3H]-thymidine incorporation assay; format: cell-based
RAW264.7 = experiment: Cytotoxicity against mouse RAW264.7 cells assessed as reduction in cell viability treated for 1 hr followed by 72 hrs incubation in drug free media by [3H]-thymidine incorporation assay; format: functional, cell-based
Mus musculus [1] = experiment: Antiinflammatory activity against mouse model of thioglycolate induced peritonitis assessed as decrease in FR+ macrophages in peritoneal fluid at 1000 nmol/kg, ip dosed twice everyday measured after 3 days by Alexafluor-488 goat anti-rabbitIgG staining based flow cytometric analysis relative to control; format: functional, organism-based; conditions: time 3.0 day
Mus musculus [2] = experiment: Antiinflammatory activity against mouse model of thioglycolate induced peritonitis assessed as decrease in total macrophage population in peritoneal fluid at 1000 nmol/kg, ip dosed twice everyday measured after 3 days by staining based flow cytometric analysis relative to control; format: functional, organism-based; conditions: time 3.0 day
Mus musculus [3] = experiment: Antiinflammatory activity against mouse model of thioglycolate induced peritonitis assessed as effect on lymphocytes in peritoneal fluid at 1000 nmol/kg, ip dosed twice everyday measured after 3 days by staining based flow cytometric analysis relative to control; format: functional, organism-based; conditions: time 3.0 day
Mus musculus [4] = experiment: Antiinflammatory activity against mouse model of thioglycolate induced peritonitis assessed as effect on granulocytes in peritoneal fluid at 1000 nmol/kg, ip dosed twice everyday measured after 3 days by staining based flow cytometric analysis relative to control; format: functional, organism-based; conditions: time 3.0 day
Folate receptor alpha = Folate receptor alpha (Homo sapiens, UniProt P15328); experiment: Displacement of [3H]-folic acid from FRalpha (unknown origin) expressed in human KB cells after 1 hr; format: cell-based
Folate receptor beta = Folate receptor beta (Homo sapiens, UniProt P14207); experiment: Displacement of [3H]-folic acid from FRbeta (unknown origin) expressed in mouse RAW264.7 cells after 1 hr; format: cell-based
Folate receptor beta, sequence (P14207 whole entry): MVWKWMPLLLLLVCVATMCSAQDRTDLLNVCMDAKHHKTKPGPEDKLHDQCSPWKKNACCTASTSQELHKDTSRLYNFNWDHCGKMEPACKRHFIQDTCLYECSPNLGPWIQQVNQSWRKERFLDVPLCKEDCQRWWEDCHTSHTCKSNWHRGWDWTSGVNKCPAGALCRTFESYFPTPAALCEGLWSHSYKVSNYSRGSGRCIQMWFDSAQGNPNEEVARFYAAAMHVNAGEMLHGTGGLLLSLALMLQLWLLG

Folate receptor alpha, sequence (P15328 whole entry): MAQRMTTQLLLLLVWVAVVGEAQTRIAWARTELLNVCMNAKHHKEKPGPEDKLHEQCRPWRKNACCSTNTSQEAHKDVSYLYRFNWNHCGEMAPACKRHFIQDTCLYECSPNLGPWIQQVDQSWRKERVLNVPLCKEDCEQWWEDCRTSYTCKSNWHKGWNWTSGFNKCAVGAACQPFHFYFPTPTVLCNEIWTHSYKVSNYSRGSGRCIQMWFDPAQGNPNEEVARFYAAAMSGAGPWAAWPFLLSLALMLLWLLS

Compound	IC50 (KB) [nM]	IC50 (RAW264.7) [nM]	Activity (Mus musculus [1])	Activity (Mus musculus [2])	Activity (Mus musculus [3])	Activity (Mus musculus [4])	IC50 (Folate receptor alpha) [nM]	IC50 (Folate receptor beta) [nM]
CC1=C[C@H]2O[C@@H]3C[C@H]4OC(=O)/C=C\C=C\C(=O)OCC[C@@H](C)[C@H](OC(=O)OCCSSC[C@H](NC(=O)[C@H](CC(=O)O)NC(=O)[C@H](CC(=O)O)NC(=O)[C@H](CCCNC(=N)N)NC(=O)[C@H](CC(=O)O)NC(=O)CC[C@H](NC(=O)c5ccc(NCc6cnc7nc(N)[nH]c(=O)c7n6)cc5)C(=O)O)C(=O)O)C(=O)OC[C@@]2(CC1)[C@]4(C)[C@]31CO1	525	8.5	Active	Active	inactive	inactive	–	–
N=C(N)NCCC[C@H](NC(=O)[C@H](CC(=O)O)NC(=O)CC[C@H](NC(=O)c1ccc(NCc2cnc3nc(N)[nH]c(=O)c3n2)cc1)C(=O)O)C(=O)N[C@@H](CC(=O)O)C(=O)N[C@@H](CC(=O)O)C(=O)N[C@@H](CS)C(=O)O ({Pteroyl-γGlu}-DRDDC-OH)	–	–	–	–	–	–	1.4	0.56
